# Measured values as given in ChEMBL document CHEMBL1141121, “Selective inhibition of MCF-7(piGST) breast tumors using glutathione transferase-derived 2-methylene-cycloalkenones” (J Med Chem, 2005).
# Key:
# Assay type in all cases: cell-based
# [1] = molecular target: T1, Glutathione S-transferase P (Homo sapiens, UniProt P09211); assay: Ratio between MCF7wt to MCF-7piGST cells overexpressing in GSTP1-1
# Target sequence in this assay (P09211 2-210 limits assumed): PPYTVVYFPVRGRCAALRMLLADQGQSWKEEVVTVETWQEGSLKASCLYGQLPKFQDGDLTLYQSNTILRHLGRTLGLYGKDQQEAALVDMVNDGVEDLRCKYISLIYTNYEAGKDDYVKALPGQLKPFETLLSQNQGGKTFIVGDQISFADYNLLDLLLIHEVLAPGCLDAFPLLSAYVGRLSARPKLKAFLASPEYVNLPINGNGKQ
# [2] = molecular target: T1, Glutathione S-transferase P; assay: Inhibitory concentration against GSTP1-1 over-expressed in MCF-7piGST cells
# Target sequence in this assay (P09211 whole entry): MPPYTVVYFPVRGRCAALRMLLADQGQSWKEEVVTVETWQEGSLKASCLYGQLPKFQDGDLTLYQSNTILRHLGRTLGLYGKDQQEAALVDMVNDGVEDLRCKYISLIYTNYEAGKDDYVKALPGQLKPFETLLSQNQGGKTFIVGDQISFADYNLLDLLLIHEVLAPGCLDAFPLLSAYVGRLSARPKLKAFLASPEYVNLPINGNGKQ
# [3] = molecular target: T1, Glutathione S-transferase P; assay: Inhibitory concentration against GSTP1-1 over-expressed in MCF7wt cells
# Target sequence in this assay (P09211 whole entry): as above
Ratio [1],IC50 [2] [µM],IC50 [3] [µM],Structure (SMILES)
2.2,13.2,29.6,C/C=C/C(=O)OCC1=CCCCC1=O
4.2,2.6,10.8,C/C=C/OC(=O)CC1=CCCCCC1=O
